Source: patent US12016918B2, “Peptide-containing adjuvant compounds having peg spacers” (UNIVERSITEIT LEIDEN, priority 2017, dated 2024)
Non-standard residues stand in square brackets, D forms with d. *: point of attachment. O(CH2CH2O)3CH2C(O) = O=C(COCCOCCOCCO)*; AEEEA = NCCOCCOCCOCC(=O)O; Carbamoyl = NC(=O)*; Cy5 = Cy5 label

Experiments:
Format in all cases: cell-based
[1] = tested on: human monocyte-derived dendritic cells; experiment: Activation of human dendritic cells (IL-12 cytokine secretion by ELISA); conditions: human DCs stimulated with titrated amounts of compound; IL-12 by ELISA; FIG. 2B/3B
Text: One representative from three independent experiments is shown (error bars represent SD);
DCs were stimulated with titrated amounts of test compounds or controls. Supernatants were harvested and analyzed for IL-12 cytokine secretion by ELISA as in FIG. 2B;

human TLR2 = molecular target: T1, human TLR2 (Homo sapiens, UniProt O60603); experiment: HEK293-TLR2 activation assay (IL-8 production); conditions: for activation of TLR2 HEK cells (human IL-8 production via TLR-2): HEK TLR-2 cells incubated with titrated amounts of compound, IL-8 in supernatant by ELISA, FIG. 2A/3A; for TLR2-mediated bio-activity compared to reference ligands: compared to compound 1 and 5 and chirally pure Pam3CSK4 (Pam-R), HEK TLR2 cells and human DC, FIG. 2
T1 construct: host or cells: HEK293
Procedure: (a) HEK TLR-2 cells were incubated with titrated amounts of test compounds or controls for 24 h;
The HEK-TLR2 reporter cell line and HEK293 cells stably transfected with human TLR2 were obtained from Invivogen, Toulouse, France. HEK-TLR2 cells were cultured in complete IMDM medium, supplemented with 500 μg/mL Geneticin. Test compounds were titrated in a flat-bottom 96-well plate (Corning, Amsterdam, The Netherlands) in complete IMDM medium to which 20 000 HEK-TLR2 cells per well were added. After 48 h of incubation at 37° C., the supernatant was taken from the wells for ELISA analysis (BioLegend, San Diego, CA) to determine the amount of IL-8 that was produced as a measure for TLR2-mediated activation.

human moDC = experiment: Uptake by human moDC (confocal laser scanning microscopy); conditions: 1 μM, 15 min incubation; Cy5-labeled conjugate; endo-lysosomal compartments; FIG. 4A
Procedure: The cells were incubated for 15 min with compound 10 (1 μM). The uptake and localization of the compounds were analyzed with confocal laser scanning microscopy. The images are representative for multiple cells in at least 3 experiments; and […]

mouse D1-cells = experiment: Uptake by mouse D1-cells (confocal laser scanning microscopy); conditions: 1 μM, 15 min incubation; Cy5-labeled conjugate; endo-lysosomal compartments; FIG. 4B
Procedure: The cells were incubated for 15 min with compound 10 (1 μM). The uptake and localization of the compounds were analyzed with confocal laser scanning microscopy. The images are representative for multiple cells in at least 3 experiments.

T1 sequence (O60603 21-784): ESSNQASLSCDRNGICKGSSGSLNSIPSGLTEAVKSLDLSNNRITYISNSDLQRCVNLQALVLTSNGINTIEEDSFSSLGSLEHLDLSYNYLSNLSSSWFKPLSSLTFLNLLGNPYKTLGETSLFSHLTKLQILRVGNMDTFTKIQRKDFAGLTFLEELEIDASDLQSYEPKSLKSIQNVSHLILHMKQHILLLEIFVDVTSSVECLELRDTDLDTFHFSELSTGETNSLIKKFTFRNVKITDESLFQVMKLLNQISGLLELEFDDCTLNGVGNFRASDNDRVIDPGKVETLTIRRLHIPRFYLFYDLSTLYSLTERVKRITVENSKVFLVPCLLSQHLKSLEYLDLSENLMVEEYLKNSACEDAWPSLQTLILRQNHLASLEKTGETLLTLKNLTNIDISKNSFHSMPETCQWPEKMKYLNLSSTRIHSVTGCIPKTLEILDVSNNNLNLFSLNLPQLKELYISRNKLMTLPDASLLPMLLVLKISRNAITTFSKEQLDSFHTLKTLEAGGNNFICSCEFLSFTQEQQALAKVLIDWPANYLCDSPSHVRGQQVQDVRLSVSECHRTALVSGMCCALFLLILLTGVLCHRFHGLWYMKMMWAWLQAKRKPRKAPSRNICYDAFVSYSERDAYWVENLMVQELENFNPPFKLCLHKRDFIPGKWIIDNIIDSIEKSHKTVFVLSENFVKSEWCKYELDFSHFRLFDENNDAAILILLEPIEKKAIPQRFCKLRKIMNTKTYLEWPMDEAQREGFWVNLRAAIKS

| Compound | activation of human monocyte-derived dendritic cells (IL-12 secretion) [1] | activation of TLR2 HEK cells (human IL-8 production via TLR-2) (human TLR2) | dendritic cell uptake, human (human moDC) | dendritic cell uptake, murine (mouse D1-cells) | TLR2-mediated bio-activity compared to reference ligands (human TLR2) |
| --- | --- | --- | --- | --- | --- |
| NH2C(O)NH-Cys(EtOC(O)C15H31)-Ser(OH)—NH(CH2CH2O)3CH2C(O)NH-DEVSGLEQLESIINFEK(^Cy5)L-OH ({Carbamoyl-Cys(EtOC(O)C15H31)}-S[AEEEA]DEVSGLEQLESIINFEK(Cy5)L-OH) [Compound 11, Cy5 fluorophore-labeled conjugate from 28] | intact bio-activity | intact bio-activity | – | – | – |
| NH2C(O)NH-Cys(EtOC(O)C15H31)-Ser(OH)—NH(CH2CH2O)3CH2C(O)NH-DEVSGLEQLESIINFEKL-OH ({Carbamoyl-Cys(EtOC(O)C15H31)}-S[AEEEA]DEVSGLEQLESIINFEKL-OH) [Compound 9] | intact bio-activity | intact bio-activity | – | – | – |
| NH2C(O)NH-Cys(EtOC(O)C15H31)-Ser(OH)—O(CH2CH2O)3CH2C(O)NH-DEVSGLEQLESIINFEK(^Cy5)L-OH ({Carbamoyl-Cys(EtOC(O)C15H31)-Ser-O(CH2CH2O)3CH2C(O)}-DEVSGLEQLESIINFEK(Cy5)L-OH) [Compound 10, Cy5 fluorophore-labeled conjugate from 27] | intact bio-activity | intact bio-activity | efficient engulfment | efficient engulfment | – |
| CCCCCCCCCCCCCCCC(=O)OCCSCC[C@H](NC(N)=O)C(=O)N[C@@H](CO)C(=O)OCCOCCOCCOCC(=O)O [Compound 6, (14S,17S)-14-(hydroxymethyl)-13,16,24-trioxo-17-ureido-3,6,9,12,23-pentaoxa-20-thia-15-azanonatriacontanoic acid] | excellent capacity to activate | excellent capacity to activate | – | – | improved |
| NH2C(O)NH-Cys(EtOC(O)C15H31)-Ser(OH)—O(CH2CH2O)3CH2C(O)NH-DEVSGLEQLESIINFEKL-OH ({Carbamoyl-Cys(EtOC(O)C15H31)-Ser-O(CH2CH2O)3CH2C(O)}-DEVSGLEQLESIINFEKL-OH) [Compound 8] | intact bio-activity | intact bio-activity | – | – | – |
| CCCCCCCCCCCCCCCC(=O)OCCSCC[C@H](NC(N)=O)C(=O)N[C@@H](CO)C(=O)NCCOCCOCCOCC(=O)O [Compound 7, (14S,17 S)-14-(hydroxymethyl)-13,16,24-trioxo-17-ureido-3,6,9,23-tetraoxa-20-thia-12,15-diazanonatriacontanoic acid] | excellent capacity to activate | excellent capacity to activate | – | – | improved |
